Laboratory results reported in patent publication US8247211B2, “Glycopeptide antibiotics” (American Cyanamid Company, priority 2001, dated 2012).
≈ marks a conversion by molar mass, not a printed value.

Assays:
Assay in all cases: In vitro antibacterial evaluation: minimum inhibitory concentration (MIC), broth dilution method
Assay type in all cases: cell-based
[1] = system: Escherichia coli; details: 18 hours at 35° C.
How it was run: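 Susceptibility determined by NCCLS-recommended broth dilution (M7-A2), Muller-Hinton II […]. Concentration span 64-0.06 μg/mL, inoculum 5×10^5 CFU/mL. Isolates include strains resistant to methicillin, penicillin and/or vancomycin.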

[2] = system: Staphylococcus sp.
How it was run: (§1)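 Inoculum: 5×10^5 CFU/mL. Range: 64-0.06 μg/mL. Medium: Muller-Hinton II […]; NCCLS M7-A2 broth dilution. Endpoint: lowest concentration inhibiting growth. Strains include methicillin-, penicillin- and/or vancomycin-resistant clinical isolates.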

[3] = system: Streptococcus sp.; details: 18 hours at 35° C.
How it was run: as §1

[4] = system: Enterococcus sp.; details: 18 hours at 35° C.
How it was run: as §1

[5] = broth dilution, inoculum 5×10^5 CFU/mL

CC(c1ccccc1)C1NC(=O)CNC(=O)C(CO)NC(=O)C(C(O)C2CNC(=N)N2C2OC(CO)C(O)C(O)C2O)NC(=O)C(C(O)C2CNC(=N)N2)NC(=O)C(Cc2ccc(OC3OC(CO)C(OC4OC5COC6(CCCCC6(C)C)OC5C(O)C4O)C(O)C3O)cc2)NC1=O (stereo not drawn) [Example 205, Cyclo[glycyl-β-methylphenylalanyl-O-[4-O-[4,6-O-(2,2-dimethylcyclohexylidene)hexopyranosyl]hexopyranosyl]tyrosyl-3-(2-iminoimidazolidin-4-yl)seryl-3-(3-hexopyranosyl-2-iminoimidazolidin-4-yl)serylseryl]]
MIC Escherichia coli (ATCC 25922) ([1]; Escherichia coli (ATCC 25922)): 64 µg/mL (≈ 45.6 µM) | MIC Escherichia coli (GC 4560) ([1]; Escherichia coli (GC 4560)): 1 µg/mL (≈ 0.713 µM) | MIC Staphylococcus aureus (ATCC 29213) ([2]; strain ATCC 29213): 2 µg/mL (≈ 1.43 µM) | MIC Staphylococcus aureus (GC 1131) ([2]; strain GC 1131): 2 µg/mL (≈ 1.43 µM) | MIC Staphylococcus aureus (GC 3051) ([2]; strain GC 3051): 2 µg/mL (≈ 1.43 µM) | MIC Staphylococcus aureus (GC 3053) ([2]; strain GC 3053): 2 µg/mL (≈ 1.43 µM) | MIC Staphylococcus aureus (GC 4541) ([2]; strain GC 4541): 2 µg/mL (≈ 1.43 µM) | MIC Staphylococcus aureus (GC 4542) ([2]; strain GC 4542): 2 µg/mL (≈ 1.43 µM) | MIC Staphylococcus aureus-SMITH (GC 4543) ([2]; strain GC 4543): 2 µg/mL (≈ 1.43 µM) | MIC Staphylococcus aureus (GC 4544) ([2]; strain GC 4544): 2 µg/mL (≈ 1.43 µM) | MIC Staphylococcus aureus (GC 4545) ([2]; strain GC 4545): 2 µg/mL (≈ 1.43 µM) | MIC Staphylococcus haemolyticus (GC 4546) ([2]; strain GC 4546): 2 µg/mL (≈ 1.43 µM) | MIC Coagulase Negative Staphylococcus (GC 4547) ([2]; strain GC 4547): 2 µg/mL (≈ 1.43 µM) | MIC Coagulase Negative Staphylococcus (GC 4548) ([2]; strain GC 4548): 1 µg/mL (≈ 0.713 µM) | MIC Coagulase Negative Staphylococcus (GC 4549) ([2]; strain GC 4549): 1 µg/mL (≈ 0.713 µM) | MIC Coagulase Negative Staphylococcus (GC 4551) ([2]; strain GC 4551): 2 µg/mL (≈ 1.43 µM) | MIC Streptococcus agalactiae (GC 4564) ([3]; Streptococcus agalactiae (GC 4564)): <0.12 µg/mL | MIC Streptococcus pneumoniae (ATCC 6301) ([3]; Streptococcus pneumoniae (ATCC 6301)): <0.12 µg/mL | MIC Streptococcus pneumoniae (GC 1894) ([3]; Streptococcus pneumoniae (GC 1894)): <0.12 µg/mL | MIC Streptococcus pneumoniae (GC 4565) ([3]; Streptococcus pneumoniae (GC 4565)): <0.12 µg/mL | MIC Streptococcus pyogenes (GC 4563) ([3]; Streptococcus pyogenes (GC 4563)): <0.12 µg/mL | MIC Streptococcus agalactiae (GC 4564) [3, 5]: <0.12 µg/mL | MIC Streptococcus pneumoniae (ATCC 6301) [3, 5]: <0.12 µg/mL | MIC Streptococcus pneumoniae (GC 1894) [3, 5]: <0.12 µg/mL | MIC Streptococcus pneumoniae (GC 4565) [3, 5]: <0.12 µg/mL | MIC Streptococcus pyogenes (GC 4563) [3, 5]: <0.12 µg/mL | MIC Enterococcus avium (GC 4558) ([4]; Enterococcus avium (GC 4558)): 4 µg/mL (≈ 2.85 µM) | MIC Enterococcus faecalis (ATCC 29212) ([4]; Enterococcus faecalis (ATCC 29212)): 2 µg/mL (≈ 1.43 µM) | MIC Enterococcus faecalis (GC 2242) ([4]; Enterococcus faecalis (GC 2242)): 4 µg/mL (≈ 2.85 µM) | MIC Enterococcus faecalis (GC 2691) ([4]; Enterococcus faecalis (GC 2691)): 4 µg/mL (≈ 2.85 µM) | MIC Enterococcus faecalis (GC 3059) ([4]; Enterococcus faecalis (GC 3059)): 2 µg/mL (≈ 1.43 µM) | MIC Enterococcus faecalis (GC 4552) ([4]; Enterococcus faecalis (GC 4552)): 4 µg/mL (≈ 2.85 µM) | MIC Enterococcus faecalis (GC 4553) ([4]; Enterococcus faecalis (GC 4553)): 2 µg/mL (≈ 1.43 µM) | MIC Enterococcus faecalis (GC 4554) ([4]; Enterococcus faecalis (GC 4554)): 4 µg/mL (≈ 2.85 µM) | MIC Enterococcus faecalis (GC 6189) ([4]; Enterococcus faecalis (GC 6189)): 2 µg/mL (≈ 1.43 µM) | MIC Enterococcus faecium (GC 2243) ([4]; Enterococcus faecium (GC 2243)): 2 µg/mL (≈ 1.43 µM) | MIC Enterococcus faecium (GC 4556) ([4]; Enterococcus faecium (GC 4556)): 2 µg/mL (≈ 1.43 µM) | MIC Enterococcus faecium (GC 4557) ([4]; Enterococcus faecium (GC 4557)): 4 µg/mL (≈ 2.85 µM) | MIC Enterococcus avium (GC 4558) [4, 5]: 4 µg/mL (≈ 2.85 µM) | MIC Enterococcus faecalis (ATCC 29212) [4, 5]: 2 µg/mL (≈ 1.43 µM) | MIC Enterococcus faecalis (GC 2242) [4, 5]: 4 µg/mL (≈ 2.85 µM) | MIC Enterococcus faecalis (GC 2691) [4, 5]: 4 µg/mL (≈ 2.85 µM) | MIC Enterococcus faecalis (GC 3059) [4, 5]: 2 µg/mL (≈ 1.43 µM) | MIC Enterococcus faecalis (GC 4552) [4, 5]: 4 µg/mL (≈ 2.85 µM) | MIC Enterococcus faecalis (GC 4553) [4, 5]: 2 µg/mL (≈ 1.43 µM) | MIC Enterococcus faecalis (GC 4554) [4, 5]: 4 µg/mL (≈ 2.85 µM) | MIC Enterococcus faecalis (GC 6189) [4, 5]: 2 µg/mL (≈ 1.43 µM) | MIC Enterococcus faecium (GC 2243) [4, 5]: 2 µg/mL (≈ 1.43 µM) | MIC Enterococcus faecium (GC 4556) [4, 5]: 2 µg/mL (≈ 1.43 µM) | MIC Enterococcus faecium (GC 4557) [4, 5]: 4 µg/mL (≈ 2.85 µM)
